# From patent US8178506B2, “Oligomeric compounds and compositions for use in modulation of small non-coding RNAs” (Regulus Therapeutics Inc., priority 2003, dated 2012)
# In the oligonucleotide strings, read from the 5' end, every base follows the letter of its sugar. An asterisk marks phosphorothioate; unmarked linkages are phosphodiester. Other units and linkages are bracketed, terminal groups are in braces. A string of capitals states the bases alone. e = 2'-O-(2-methoxyethyl) (MOE); [5mC] = 5-methylcytosine
# Experiments:
# adipocytes = experiment: Triglyceride accumulation assay in adipocytes; type: cell-based, human; conditions: differentiating adipocytes transfected with oligomeric compound; Table 75
# follistatin = experiment: Follistatin mRNA expression in HepG2 cells; type: cell-based, human; conditions: for Follistatin mRNA: HepG2 cells, Experiment 1, basal (no insulin), four hours, UTC = 100; for Follistatin mRNA expression: Experiment 2, insulin treated: HepG2 cells transfected with oligomeric compound, 1 nM insulin for four hours, UTC + 1 nM insulin = 100
# HuVECs = experiment: Endothelial tube formation assay in HuVECs; conditions: 75 nM oligomeric compound
Substance,TG (triglyceride accumulation) (adipocytes),Follistatin mRNA (follistatin),% Activity Relative to UTC (tube formation) (HuVECs; Table 56) [%],% Activity Relative to UTC (tube formation) (HuVECs; Table 58) [%],Follistatin mRNA expression (follistatin),% Activity Relative to UTC (tube formation) (HuVECs; Table 59) [%]
327873 (antisense e[5mC]*eT*eA*e[5mC]*e[5mC]*eA*eT*eA*eG*eG*eG*eT*eA*eA*eA*eA*e[5mC]*e[5mC]*eA*e[5mC]*eT) [compound 327873],105 percentage of untreated control (UTC),97,100.0,,,
327940 (antisense eG*eA*eA*e[5mC]*eA*eG*eG*eT*eA*eG*eT*e[5mC]*eT*eG*eA*eA*e[5mC]*eA*e[5mC]*eT*eG*eG*eG) [compound 327940],62 percentage of untreated control (UTC),,,59.3,,
327950 (antisense eT*e[5mC]*eA*eG*eT*eT*eT*eT*eG*e[5mC]*eA*eT*eA*eG*eA*eT*eT*eT*eG*e[5mC]*eA*e[5mC]*eA) [compound 327950],125 percentage of untreated control (UTC),83,,,89,73.3
327965 (antisense eA*eT*e[5mC]*eA*e[5mC]*eA*eT*eA*eG*eG*eA*eA*eT*eA*eA*eA*eA*eA*eG*e[5mC]*e[5mC]*eA*eT*eA) [compound 327965],116 percentage of untreated control (UTC),95,,,79,100.0
327959 (antisense e[5mC]*eA*eG*e[5mC]*e[5mC]*eG*e[5mC]*eT*eG*eT*e[5mC]*eA*e[5mC]*eA*e[5mC]*eG*e[5mC]*eA*e[5mC]*eA*eG) [compound 327959],33 percentage of untreated control (UTC),98,,,92,40.0
327958 (antisense e[5mC]*e[5mC]*eG*eG*e[5mC]*eT*eG*e[5mC]*eA*eA*e[5mC]*eA*e[5mC]*eA*eA*eG*eA*e[5mC]*eA*e[5mC]*eG*eA) [compound 327958],28 percentage of untreated control (UTC),91,,,112,40.0
327936 (antisense eA*e[5mC]*eA*eG*e[5mC]*eT*eG*eG*eT*eT*eG*eA*eA*eG*eG*eG*eG*eA*e[5mC]*e[5mC]*eA*eA) [compound 327936],23 percentage of untreated control (UTC),,,51.9,,
327963 (antisense eA*eA*e[5mC]*e[5mC]*eT*eA*eT*e[5mC]*e[5mC]*eT*eG*eA*eA*eT*eT*eA*e[5mC]*eT*eT*eG*eA*eA) [compound 327963],124 percentage of untreated control (UTC),101,,,95,93.3
327935 (antisense e[5mC]*eT*eA*e[5mC]*e[5mC]*eT*eG*e[5mC]*eA*e[5mC]*eT*eA*eT*eA*eA*eG*e[5mC]*eA*e[5mC]*eT*eT*eT*eA) [compound 327935],41 percentage of untreated control (UTC),,,74.1,,
327952 (antisense e[5mC]*eT*eA*e[5mC]*eG*e[5mC]*eG*eT*eA*eT*eT*e[5mC]*eT*eT*eA*eA*eG*e[5mC]*eA*eA*eT*eA) [compound 327952],93 percentage of untreated control (UTC),93,,,100,53.3
327944 (antisense eA*eA*eA*eG*eT*eG*eT*e[5mC]*eA*eG*eA*eT*eA*e[5mC]*eG*eG*eT*eG*eT*eG*eG) [compound 327944],38 percentage of untreated control (UTC),,,37.0,,
327949 (antisense e[5mC]*eA*e[5mC]*eA*eA*eA*eT*eT*e[5mC]*eG*eG*eA*eT*e[5mC]*eT*eA*e[5mC]*eA*eG*eG*eG*eT*eA) [compound 327949],43 percentage of untreated control (UTC),112,,,111,66.7
327924 (antisense eG*e[5mC]*eA*eA*eG*e[5mC]*e[5mC]*e[5mC]*eA*eG*eA*e[5mC]*e[5mC]*eG*e[5mC]*eA*eA*eA*eA*eA*eG) [compound 327924],,,,88.9,,
327971 (antisense eG*eG*eA*eA*eA*eT*e[5mC]*e[5mC]*e[5mC]*eT*eG*eG*e[5mC]*eA*eA*eT*eG*eT*eG*eA*eT) [compound 327971],45 percentage of untreated control (UTC),,,,,
327961 (antisense eG*eG*eG*eG*eT*eA*eT*eT*eT*eG*eA*e[5mC]*eA*eA*eA*e[5mC]*eT*eG*eA*e[5mC]*eA) [compound 327961],77 percentage of untreated control (UTC),113,,,128,53.3
327957 (antisense e[5mC]*eA*e[5mC]*eA*eA*eG*eT*eT*e[5mC]*eG*eG*eA*eT*e[5mC]*eT*eA*e[5mC]*eG*eG*eG*eT*eT) [compound 327957],29 percentage of untreated control (UTC),69,,,73,66.7
327945 (antisense e[5mC]*eT*eG*eT*eT*e[5mC]*e[5mC]*eT*eG*e[5mC]*eT*eG*eA*eA*e[5mC]*eT*eG*eA*eG*e[5mC]*e[5mC]*eA) [compound 327945],48 percentage of untreated control (UTC),,,59.3,,
327964 (antisense e[5mC]*e[5mC]*eA*eA*eG*eT*eT*e[5mC]*eT*eG*eT*e[5mC]*eA*eT*eG*e[5mC]*eA*e[5mC]*eT*eG*eA) [compound 327964],60 percentage of untreated control (UTC),97,,,114,86.7
327946 (antisense eA*eG*eG*e[5mC]*eG*eA*eA*eG*eG*eA*eT*eG*eA*e[5mC]*eA*eA*eA*eG*eG*eG*eA*eA) [compound 327946],82 percentage of untreated control (UTC),103,,51.9,109,
